In publication PMC5557901, “Cell surface binding, uptaking and anticancer activity of L-K6, a lysine/leucine-rich peptide, on human breast cancer MCF-7 cells” (Scientific Reports, 2017):
pIC50: −log10 of the molar value. Read-outs that look alike come from different tables or passages of the source. Peptide text beside a SMILES is read from it.

What was measured:
Format in all cases: cell-based, human
[1] = tested on: various cancer cell lines; test: MTT cytotoxicity assay, various cancer cell lines; details: Fig. 1a
From the text: Eleven human cancer cell lines (including MCF-7 breast carcinoma, Bcap-37 breast carcinoma, MDA-MB-231 breast adenocarcinoma, HeLa cervical carcinoma, BGC-823 gastric carcinoma, A375 melanoma, NCI-H446 small cell lung carcinoma, HO-8910 ovarian carcinoma, SMMC-7721 hepatocellular carcinoma, LK-2 lung squamous cells carcinoma, and BEL-7402 hepatocellular carcinoma) were obtained from the CBCAS (Cell Bank of the Chinese Academy of Sciences, Shanghai, China). Human HaCaT keratinocytes were obtained from KeyGEN Biotech (Nanjing, China). Cells were routinely cultured in RPMI 1640 or L15 or DMEM containing 10% neonatal bovine serum (NBS) or fetal bovine serum (FBS), 1% l-glutamine, 1% sodium pyruvate, 50 U/mL penicillin and 50 μg/mL streptomycin. The cells were maintained at 37 °C in a humidified atmosphere of 5% CO2.
Cell viability was detected by MTT assay. The cells were seeded at 5 × 10^3 cells/well in 96-well plates 24 h before the peptide treatment. After 1, 6, 24, or 48 h of incubation with various concentrations of peptides (20–100 µM), 10 μL of the 5 mg/mL MTT solution was added to each well and incubated for additional 4 h. The purple-blue MTT formazan precipitate was dissolved in 150 μL of DMSO. The absorbance was determined using a microplate reader at 490 nm. […] The data were expressed as a percentage of the inhibition rate for the viable cells. […]

[2] = tested on: MCF-7 cells
Method: (§1) Cell viability was detected by MTT assay. The cells were seeded at 5 × 10^3 cells/well in 96-well plates 24 h before the peptide treatment. After 1, 6, 24, or 48 h of incubation with various concentrations of peptides (20–100 µM), 10 μL of the 5 mg/mL MTT solution was added to each well and incubated for additional 4 h. The purple-blue MTT formazan precipitate was dissolved in 150 μL of DMSO. The absorbance was determined using a microplate reader at 490 nm. The experiments were performed in triplicate. The data were expressed as a percentage of the inhibition rate for the viable cells. For the thermo-sensitivity test, MCF-7 cells were treated with L-K6 at 4 °C or 37 °C for 30 min and then subjected to the MTT assay. For energy-dependent assay, the L-K6-treated MCF-7 cells were pre-incubated with 40 μM NaN3 for 30 min[39] and then subjected to the MTT assay. All experiments had been performed in triplicate.

[3] = tested on: HaCaT cells; test: MTT cytotoxicity assay, non-cancerous HaCaT cells; details: 1-hour peptide exposure
Method: as §1

[4] = tested on: MCF-7 cells; test: Cellular uptake by confocal microscopy, MCF-7 cells; details: FITC-labeled L-K6, confocal microscopy, after 5 min of peptide exposure
Method: (§2) MCF-7 or HaCaT cells were incubated with various concentrations of FITC-labeled L-K6 for 5, 10 or 60 min. Myelin and other lipophilic areas on cell membrane were stained with the red-orange fluorescent tracker DiI. The FITC-labeled peptides were traced and recorded at each time point using confocal microscopy.

[5] = tested on: HaCaT cells; test: Cellular uptake by confocal microscopy, HaCaT cells; details: FITC-labeled L-K6, confocal microscopy, 1-hour exposure
Method: as §2

SMILES | Cytotoxicity on cancer cell lines relative to L-K6 (MTT) [1] | pIC50 ([2]; 1 h) | pIC50 ([2]; 6 h) | pIC50 ([2]; 24 h) | pIC50 ([2]; 48 h) | Toxicity against normal HaCaT cells (MTT) [3] | Cellular uptake into MCF-7 cells [4] | Cellular uptake into HaCaT cells [5]
CC[C@H](C)[C@H](N)C(=O)N[C@@H](CCCCN)C(=O)N[C@@H](CCCCN)C(=O)N[C@H](C(=O)N[C@H](C(=O)N[C@@H](CO)C(=O)N[C@@H](CCCCN)C(=O)N[C@H](C(=O)N[C@@H](CCCCN)C(=O)N[C@@H](CCCCN)C(=O)N[C@@H](CC(C)C)C(=O)N[C@@H](CC(C)C)C(N)=O)[C@@H](C)CC)C(C)C)[C@@H](C)CC [L-K5 V1] (H-IKKIVSKIKKLL-NH2) | dramatically weakened this cytotoxicity | – | – | – | – | – | – | –
CC[C@H](C)[C@H](N)C(=O)N[C@@H](CCCCN)C(=O)N[C@@H](CCCCN)C(=O)N[C@H](C(=O)N[C@@H](CC(C)C)C(=O)N[C@@H](CO)C(=O)N[C@@H](CCCCN)C(=O)N[C@H](C(=O)N[C@@H](CCCCN)C(=O)N[C@@H](CCCCN)C(=O)N[C@@H](CC(C)C)C(=O)N[C@@H](CC(C)C)C(=O)N[C@@H](CCCCN)C(N)=O)[C@@H](C)CC)[C@@H](C)CC [L-K6] (H-IKKILSKIKKLLK-NH2) | – | 4.42 | 4.47 | 4.51 | 4.64 | minimum toxicity | rapidly internalize into cells | negligible cellular uptake
CC[C@H](C)[C@H](N)C(=O)N[C@@H](CCCCN)C(=O)N[C@@H](CCCCN)C(=O)N[C@H](C(=O)N[C@H](C(=O)N[C@@H](CO)C(=O)N[C@@H](CCCCN)C(=O)N[C@H](C(=O)N[C@@H](CCCCN)C(=O)N[C@@H](CCCCN)C(=O)N[C@@H](CC(C)C)C(=O)N[C@@H](CC(C)C)C(=O)N[C@@H](CCCCN)C(N)=O)[C@@H](C)CC)C(C)C)[C@@H](C)CC [L-K6 V1] (H-IKKIVSKIKKLLK-NH2) | dramatically weakened this cytotoxicity | – | – | – | – | – | – | –
